{"source": "the SangsterLogP compilation", "key": {"[1]": {"assay": "method code SF-GLC, from DOI: 10.1556/jpc.23.2010.3.6"}, "[2]": {"assay": "method code SF-AS, from DOI: 10.1016/0378-5173(92)90099-n"}, "[3]": {"assay": "method code SF-AS, from Zsuzsa, H.; Nora, K. (1979). Study on the partition coefficient of acetanilides. Nehezvegyp. Kut. Intez. Kozl., 8, 139-146."}, "[4]": {"assay": "method code SF-AS, from DOI: 10.1016/s0021-9673(00)91570-x", "settings": "pH 3.4"}, "[5]": {"assay": "method code SF-NMR, from DOI: 10.1016/j.jpba.2012.12.010, PMID: 23298914", "settings": "pH 7.6"}, "[6]": {"assay": "method code SF-RC, from DOI: 10.1021/jm070025+, PMID: 17411026", "settings": "pH 7.4"}, "[7]": {"settings": "pH 7.4"}, "[8]": {"assay": "method code SF-AS, from PMID: 3449083"}, "[9]": {"assay": "method code SF, from DOI: 10.1016/s0006-3495(89)82875-9, PMID: 2470429", "settings": "pH 7.3"}, "[10]": {"assay": "method code SF-AS, from PMID: 17401091", "settings": "pH 7.4"}, "[11]": {"assay": "from Ammermann, E., Loecher, F., Lorenz, G., Janssen, B., Karbach, S., & Meyer, N. (1990). BAS 480 F - a new broad spectrum fungicide. In Brighton Crop Protection Conference, Pests and Diseases - 1990 …", "settings": "pH 7.0"}, "[12]": {"assay": "method code SF-FL, from DOI: 10.1002/jps.2600810104, PMID: 1352350"}, "[13]": {"assay": "method code SF-AS, from DOI: 10.1021/jm00254a028, PMID: 4845386"}, "[14]": {"assay": "not given", "remark": "listed apart in the source"}, "[15]": {"assay": "method code SF-HPLC, from DOI: 10.1016/s0021-9673(99)01336-9, PMID: 10757301"}, "[16]": {"assay": "method code SF, from DOI: 10.1016/j.ejps.2016.06.024, PMID: 27373604", "settings": "pH 7.4"}, "[17]": {"assay": "not given", "remark": "listed apart in the source"}, "[18]": {"assay": "method code SF-RC, from DOI: 10.1016/j.nucmedbio.2012.01.004, PMID: 22336372", "settings": "pH 7.4"}, "[19]": {"assay": "not given", "remark": "listed apart in the source"}, "[20]": {"assay": "not given", "remark": "listed apart in the source"}, "[21]": {"assay": "method code SF-HPLC, from Hairsine, P. (1997). Direct measurement of partition coefficient by shake flask technique and gradient elution HPLC. Lab. Practice, 38(11)73-75."}, "[22]": {"assay": "not given", "remark": "listed apart in the source"}, "[23]": {"assay": "method code SF-AS, from DOI: 10.1007/bf00500291, PMID: 4270072", "settings": "pH 7.4"}, "[24]": {"assay": "method code SF-AS, from DOI: 10.1007/bf02273190"}, "[25]": {"assay": "not given", "remark": "listed apart in the source"}, "[26]": {"assay": "method code SF-AS, from Thiel, W. (1998). Structure and physicochemical properties of retigabine. Pharmazie, 53(12)865-868.", "settings": "pH 7.4"}, "[27]": {"assay": "method code SF-AS, from DOI: 10.1081/jlc-100100410", "settings": "pH 4.0"}, "[28]": {"assay": "not given", "remark": "listed apart in the source"}, "[29]": {"assay": "not given", "remark": "listed apart in the source"}, "[30]": {"assay": "method code SF-RC, from DOI: 10.1016/j.bmc.2005.04.014, PMID: 15911305", "settings": "pH 7.4"}, "[31]": {"assay": "method code SF-HPLC, from DOI: 10.1023/a:1013643013244, PMID: 11837695", "settings": "pH 6.4"}, "[32]": {"assay": "not given", "remark": "listed apart in the source"}, "[33]": {"assay": "method code SF-AS, from Galdino, S.; Pitta, I.; Luc-Duc, C. (1986). 5-Benzylidene pyrrolones, furanones and thiopenones. II. Quantitative structure-antifungal correlation. Farmaco [Sci], 41(1)59-68."}, "[34]": {"assay": "method code SF-AS/IM, from DOI: 10.1002/jps.2600661205, PMID: 925928"}, "[35]": {"assay": "method code SF-LC/MS, from DOI: 10.1021/jm4008714, PMID: 23919803", "settings": "pH 7.4"}, "[36]": {"assay": "method code SF-HPLC, from DOI: 10.1023/a:1007514121527, PMID: 10714601", "settings": "pH 7.4"}, "[37]": {"assay": "method code SF-FL, from DOI: 10.1248/cpb.27.638, PMID: 554741"}, "[38]": {"assay": "not given", "remark": "listed apart in the source"}, "[39]": {"assay": "method code SF, from DOI: 10.1021/jm049495j.s001, PMID: 15771458", "settings": "pH 12.0"}, "[40]": {"assay": "not given", "remark": "listed apart in the source"}, "[41]": {"assay": "method code SF-RC, from DOI: 10.1016/s0969-8051(99)00046-3, PMID: 10628564", "settings": "pH 7.4"}, "[42]": {"assay": "method code SF-RC, from PMID: 14530489", "settings": "pH 7.4"}, "[43]": {"assay": "method code SF-AS, from DOI: 10.1016/s0928-0987(01)00170-1, PMID: 11500262", "settings": "pH 12.5"}, "[44]": {"assay": "not given", "remark": "listed apart in the source"}}, "data": [{"compound": "CCCCCCCCCCCCCCCCO", "values": [{"measurement": "logP", "setting": "[1]", "value": 7}]}, {"compound": "CCn1cc(C(=O)O)c(=O)c2cc(F)c(N3CCN(C)CC3)c(F)c21", "values": [{"measurement": "logP", "setting": "[2]", "value": 0.3}]}, {"compound": "CC(Cl)C(=O)N(CC(=O)Nc1ccccc1)c1ccccc1", "note": "(stereo not given)", "values": [{"measurement": "logP", "setting": "[3]", "value": 3.02}]}, {"compound": "COc1cc(CC(=O)O)ccc1OCC1CCCCC1", "values": [{"measurement": "logD", "setting": "[4]", "value": 3.35}]}, {"compound": "c1ccc2c(c1)Cc1c-2ccc2ccccc12", "values": [{"measurement": "logP", "value": 5.32}]}, {"compound": "COC(=O)C(N)Cc1cc(I)c(Oc2ccc(O)c(I)c2)c(I)c1", "note": "(stereo not given)", "values": [{"measurement": "logD", "setting": "[5]", "value": 2.6}]}, {"compound": "CN(C)c1ccc(/C=C/c2cnc(OCCO)c(I)c2)cc1", "values": [{"measurement": "logD", "setting": "[6]", "value": 2.64}]}, {"compound": "CCCCSCS(=O)CC(CO)NC(=O)C=Cc1c(C)[nH]c(=O)[nH]c1=O", "note": "(stereo not given)", "values": [{"measurement": "logD", "setting": "[7]", "value": 0.14}]}, {"compound": "CN1C=CCC(C(=O)OC2CCC(NC(=O)N(CCCl)N=O)CC2)=C1", "note": "(stereo not given)", "values": [{"measurement": "logP", "setting": "[8]", "value": 2.53}]}, {"compound": "COC(=O)C1=C(C)NC(C)=C([N+](=O)[O-])C1c1ccccc1C(F)(F)F", "note": "(stereo not given)", "values": [{"measurement": "logD", "setting": "[9]", "value": 2.46}]}, {"compound": "CN(C)c1ncc(C=Cc2nc3ccc(OCCF)cc3o2)s1", "values": [{"measurement": "logD", "setting": "[10]", "value": 1.75}]}, {"compound": "Fc1ccc([C@]2(Cn3cncn3)O[C@H]2c2ccccc2Cl)cc1", "note": "(stereo in doubt)", "values": [{"measurement": "logD", "setting": "[11]", "value": 3.44}]}, {"compound": "CN1CCN=C(c2ccccc2)c2cc(Cl)ccc21", "values": [{"measurement": "logP", "setting": "[12]", "value": 3.3}]}, {"compound": "NC(=O)OC1c2ccccc2C2CCCCC2C1OC(N)=O", "note": "(stereo not given)", "values": [{"measurement": "logP", "setting": "[13]", "value": 2.17}]}, {"compound": "CN1CC[C@]23c4c5ccc(O)c4O[C@H]2C(=O)CC[C@@]3(O)[C@H]1C5", "values": [{"measurement": "logP", "setting": "[14]", "value": 0.67}]}, {"compound": "CO/N=C(\\C(=O)N[C@@H]1C(=O)N2C(C(=O)O)=C(COC(N)=O)CS[C@H]12)c1ccco1", "values": [{"measurement": "logP", "setting": "[15]", "value": -0.17}]}, {"compound": "NC(=O)C1c2ccccc2CCc2ccccc21", "values": [{"measurement": "logD", "setting": "[16]", "value": 1.67}]}, {"compound": "Cc1cc2c(s1)Nc1ccccc1N=C2N1CCN(C)CC1", "values": [{"measurement": "logP", "setting": "[17]", "value": 3}]}, {"compound": "C#CCN(CCF)c1ccc(S(=O)c2ccc([N+](=O)[O-])cc2)cc1", "note": "(stereo not given)", "values": [{"measurement": "logD", "setting": "[18]", "value": 2.6}]}, {"compound": "CCCCCCNC(=O)CNC(=O)OCc1ccccc1", "values": [{"measurement": "logP", "setting": "[19]", "value": 3.7}]}, {"compound": "COC1=CC(=NO)CC(C)C12Oc1c(Cl)c(OC)cc(OC)c1C2=O", "note": "(stereo not given)", "values": [{"measurement": "logP", "setting": "[20]", "value": 2.31}]}, {"compound": "O=C(CCNNC(=O)c1ccncc1)NCc1ccccc1", "values": [{"measurement": "logP", "setting": "[21]", "value": 0.83}]}, {"compound": "c1cc2ccc1CCc1ccc(cc1)CC2", "values": [{"measurement": "logP", "setting": "[22]", "value": 4.61}]}, {"compound": "CN1C(=O)CN=C(C2=CCCCC2)c2cc(Cl)ccc21", "values": [{"measurement": "logD", "setting": "[23]", "value": 2.76}]}, {"compound": "CCCCCCC(=O)N(C)c1ccc(S(=O)(=O)N(C)C)cc1", "values": [{"measurement": "logP", "setting": "[24]", "value": 2.61}]}, {"compound": "CN(C)Cc1ccccc1Sc1ccc(I)cc1CO", "values": [{"measurement": "logP", "setting": "[25]", "value": 2.67}]}, {"compound": "CCOC(=O)Nc1ccc(NCc2ccc(F)cc2)cc1N", "values": [{"measurement": "logD", "setting": "[26]", "value": 2.17}]}, {"compound": "CC(C)Oc1ccc(C(=O)NS(=O)(=O)c2ccc(N)cc2)cc1", "values": [{"measurement": "logD", "setting": "[27]", "value": 1.21}]}, {"compound": "COc1ccc(Sc2ccc(I)cc2N)c(CN(C)C)c1", "values": [{"measurement": "logP", "setting": "[28]", "value": 3.34}]}, {"compound": "CCCCCCCC(=O)N[C@@H]1C(=O)N2[C@@H]1SC(C)(C)[C@@H]2C(=O)O", "values": [{"measurement": "logP", "setting": "[29]", "value": 3.32}]}, {"compound": "Nc1nc(OCc2cccc(I)c2)c2ncn(C3CC(O)C(CO)O3)c2n1", "note": "(stereo not given)", "values": [{"measurement": "logD", "setting": "[30]", "value": 1.4}]}, {"compound": "CCCN1C(=O)CCC(N2C(=O)c3ccccc3C2=O)C1=O", "note": "(stereo not given)", "values": [{"measurement": "logD", "setting": "[31]", "value": 2.11}]}, {"compound": "CC(Oc1ccccc1)C(=O)N[C@@H]1C(=O)N2[C@@H]1SC(C)(C)[C@@H]2C(=O)O", "note": "(stereo not given in full)", "values": [{"measurement": "logP", "setting": "[32]", "value": 2.19}]}, {"compound": "CCOC(=O)C1=C(C)O/C(=C\\c2ccc(OC)cc2)C1=O", "values": [{"measurement": "logP", "setting": "[33]", "value": 2.96}]}, {"compound": "CC1(C)S[C@@H]2[C@H](NC(=O)COc3ccccc3)C(=O)N2[C@H]1C(=O)O", "values": [{"measurement": "logP", "setting": "[34]", "value": 1.95}]}, {"compound": "Cn1c(=O)nc(-c2ccccc2)c2oc3ccccc3c21", "values": [{"measurement": "logD", "setting": "[35]", "value": 2.8}]}, {"compound": "COc1cc2oc(=O)cc(CC(NC(C)=O)C(N)=O)c2cc1OC", "note": "(stereo not given)", "values": [{"measurement": "logD", "setting": "[36]", "value": -0.13}]}, {"compound": "c1ccc(Nc2cccc3ccccc23)cc1", "values": [{"measurement": "logP", "setting": "[37]", "value": 4.2}]}, {"compound": "CCCN(CCC)P(=O)(OC(C)CC)c1ccccc1", "note": "(stereo not given)", "values": [{"measurement": "logP", "setting": "[38]", "value": 4.13}]}, {"compound": "c1ccc2c(c1)CCn1ccnc1C21CCNCC1", "values": [{"measurement": "logD", "setting": "[39]", "value": 1.18}]}, {"compound": "Oc1ccc(C23CC4CC(CC(C4)C2)C3)cc1", "values": [{"measurement": "logP", "setting": "[40]", "value": 5.46}]}, {"compound": "CN1CCN(C(=O)OC2c3nccnc3C(=O)N2c2ccc(I)cn2)CC1", "note": "(stereo not given)", "values": [{"measurement": "logD", "setting": "[41]", "value": 1.6}]}, {"compound": "CS(=O)(=O)c1ccc(-c2ccsc2-c2ccc(F)cc2)cc1", "values": [{"measurement": "logD", "setting": "[42]", "value": 3.72}]}, {"compound": "CN(C)CCC(c1ccccc1)c1ccccc1", "values": [{"measurement": "logD", "setting": "[43]", "value": 5.4}]}, {"compound": "COc1ccc(C(=O)NNC(=O)c2ccc(OC)cc2)cc1", "values": [{"measurement": "logP", "setting": "[44]", "value": 1.55}]}]}
